Reference: patent US9340616B2, “Methods and compositions for heptameric targeting ligands” (The University of North Carolina at Chapel Hill, priority 2011, dated 2016)

Tests used:
[1] = test system: HER2-positive SK-OV3 cells; assay: MTS cell proliferation assay, SK-OV3; format: cell-based; conditions: 10 μM, 24 h, positive control
Procedure: (§1) FIGS. 10A-C. Cellular toxicity of heptameric molecules. A) A431 (EGFR), B) SK-OV3 (HER2), and C) LNCaP cells were incubated with 1 uM of each of the heptamer molecules for 24 hours at 37° C. Cisplatin (10 uM) was also incubated with each of the cells as a positive control. Cells without incubation with any proteins or cisplatin were used as a negative control.
(§2) A CellTiter96 Aqueous Non-Radioactive Cell Proliferation Assay kit from Promega (Madison, Wis.) was used for MTS assay. Approximately 10^4 cells were seeded on each well in a 96-well plate and grown for 16 hours at 37° C. Each heptameric molecule was incubated with the cells for 24 hours and Cis-platinum (II) diamine dichloride (cisplatin, CDDP) (Sigma-Aldrich Chemical Co) was used as positive control. 20 μl of MTS/PMS solution was added into each well followed by incubation for 4 hours at 37° C. The absorbance at 490 nm was recorded using an ELISA plate reader.
(§3) A CellTiter96 Aqueous Non-Radioactive Cell Proliferation Assay kit from Promega (Madision, Wis.) was used for the MTS assay. Approximately 1×10^4 cells were seeded in each well of a 96-well plate and grown for 16 h at 37° C. Each heptameric molecule was incubated with the cells for 24 h. 10 μM Cis-platinum (II) diamine dichloride (Sigma-Aldrich Chemical Co, St Louis, Mo.) was used as a positive control. […] The absorbance at 490 nm was recorded using an ELISA plate reader.

EGFR-positive A431 cells = assay: MTS cell proliferation assay, A431; format: cell-based; conditions: 10 μM, 24 h, positive control
Procedure: as §1, §2, §3

**Q.** Which “cell proliferation inhibited to” value [1] does the source give for `N.N.[Cl][Pt][Cl]` [cisplatin, Cis-platinum (II) diamine dichloride] here?
**A.** The value was 50%.

**Q.** What about the “cell proliferation inhibited to” value (EGFR-positive A431 cells) of the same compound?
**A.** The value was 50%.
